Data from the supplement of paper PMC6045584.
± gives the standard deviation of the averaged measurements.

Tests used:
YM155 = compound: COCC[n+]1c2c(n(Cc3cnccn3)c1C)C(=O)c1ccccc1C2=O [YM155]; assay: area under dose-response curve of surviving fraction (unscaled, Aref=0) (surviving fraction x log10(nM)); higher = more resistant; conditions: exposure time: 5 days; dose range 0.5-1000 nM
Procedure, shortened: (§1)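 Surviving fractions were fitted by 3-parameter logistic regression in the drc R package to give dose-response survival curves. They came from tumour cell lines treated for five days with eight inhibitor concentrations from 0.5 to 1000 nM and read by CellTiter-Glo luminescence against DMSO-only wells. The area under the curve is the unscaled activity area. It was calculated over log10 dose with Aref = 0.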

CAMPTOTHECIN = compound: CC[C@@]1(O)C(=O)OCc2c1cc1n(c2=O)Cc2cc3ccccc3nc2-1 [CAMPTOTHECIN]; assay: as above; conditions: exposure time: 5 days; dose range 0.5-1000 nM
Procedure, shortened: as §1

CARBOPLATIN = compound: O=C(O)C1(C(=O)O)CCC1.[NH2-].[NH2-].[Pt+2] [CARBOPLATIN]; assay: as above; conditions: exposure time: 5 days; dose range 0.5-1000 nM
Procedure, shortened: as §1

OSI-906 [1] = compound: T1, C[C@]1(O)C[C@@H](c2nc(-c3ccc4ccc(-c5ccccc5)nc4c3)c3c(N)nccn32)C1 [OSI-906]; assay: as above; conditions: exposure time: 5 days; dose range 0.5-1000 nM
Procedure, shortened: as §1

PACLITAXEL = compound: CC(=O)O[C@H]1C(=O)[C@@]2(C)[C@H]([C@H](OC(=O)c3ccccc3)[C@]3(O)C[C@H](OC(=O)[C@H](O)[C@@H](NC(=O)c4ccccc4)c4ccccc4)C(C)=C1C3(C)C)[C@]1(OC(C)=O)CO[C@@H]1C[C@@H]2O [PACLITAXEL]; assay: as above; conditions: exposure time: 5 days; dose range 0.5-1000 nM
Procedure, shortened: as §1

CELECOXIB = compound: Cc1ccc(-c2cc(C(F)(F)F)nn2-c2ccc(S(N)(=O)=O)cc2)cc1 [CELECOXIB]; assay: as above; conditions: exposure time: 5 days; dose range 0.5-1000 nM
Procedure, shortened: as §1

[2] = compound: CC(=O)c1c(C)c2cnc(Nc3ccc(N4CCNCC4)cn3)nc2n(C2CCCC2)c1=O; assay: as above; conditions: exposure time: 5 days; dose range 0.5-1000 nM
Procedure, shortened: as §1

OSI-906 [3] = compound: T1, OSI-906; assay: surviving fraction relative to DMSO-only wells; higher = less growth inhibition; conditions: exposure time: 5 days
Procedure, shortened: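 Inhibitors at 0.5, 1, 5, 10, 50, 100, 500 and 1000 nM were applied continuously for five days to tumour cell lines seeded in log phase at 250–500 cells per well in 384-well plates 24 hours earlier. Viability was measured by CellTiter-Glo luminescence and expressed as surviving fraction relative to the median of DMSO-only wells. Luminescence was taken after 10 minutes at room temperature.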

[4] = compound: CC(=O)NCC(=O)N1[C@@H]2CC[C@H]1c1ccc(Nc3ncc(C(F)(F)F)c(NC4CCC4)n3)cc12; assay: area under dose-response curve of surviving fraction (unscaled, Aref=0) (surviving fraction x log10(nM)); higher = more resistant; conditions: exposure time: 5 days; dose range 0.5-1000 nM
Procedure, shortened: as §1

GEFITINIB = compound: COc1cc2ncnc(Nc3ccc(F)c(Cl)c3)c2cc1OCCCN1CCOCC1 [GEFITINIB]; assay: as above; conditions: exposure time: 5 days; dose range 0.5-1000 nM
Procedure, shortened: as §1

Row | Test System | area under dose-response curve (YM155) | area under dose-response curve (CAMPTOTHECIN) | area under dose-response curve (CARBOPLATIN) | area under dose-response curve (OSI-906 [1]) | area under dose-response curve (PACLITAXEL) | area under dose-response curve (CELECOXIB) | area under dose-response curve [2] | surviving fraction (OSI-906 [3]; 0.5 nM) | surviving fraction (OSI-906 [3]; 1 nM) | surviving fraction (OSI-906 [3]; 5 nM) | surviving fraction (OSI-906 [3]; 10 nM) | surviving fraction (OSI-906 [3]; 50 nM) | surviving fraction (OSI-906 [3]; 100 nM) | surviving fraction (OSI-906 [3]; 500 nM) | surviving fraction (OSI-906 [3]; 1000 nM) | area under dose-response curve [4] | area under dose-response curve (GEFITINIB)
1 | NOS1 BONE | 1.08 | 1.96 | 3.95 | 2.83 | 1.13 | 3.88 | 3.53 | 0.916 ± 0.13 | 0.944 ± 0.062 | 1.16 ± 0.49 | 1 ± 0.15 | 1 ± 0.059 | 0.884 ± 0.057 | 0.465 ± 0.028 | 0.462 ± 0.029 | – | –
2 | HMLE3 BREAST | 1.02 | 0.888 | – | 2.79 | 0.754 | 3.53 | 3.23 | 0.808 ± 0.068 | 0.887 ± 0.071 | 0.931 ± 0.045 | 0.841 ± 0.0091 | 0.875 ± 0.047 | 0.901 ± 0.079 | 0.783 ± 0.035 | 0.724 ± 0.12 | 2.59 | –
3 | SG31 HEADNECK | 1.96 | 1.58 | 3.73 | 2.94 | 1.44 | 4.19 | 3.36 | 0.867 ± 0.15 | 0.994 ± 0.057 | 0.84 ± 0.045 | 0.985 ± 0.056 | 1 ± 0.22 | 0.833 ± 0.1 | 0.615 ± 0.042 | 0.493 ± 0.042 | 2.85 | –
4 | JURKAT HAEMATOPOIETIC AND LYMPHOID TISSUE | 1.3 | 0.802 | 3.39 | 3.25 | 0.401 | 3.37 | – | 0.966 ± 0.033 | 0.971 ± 0.013 | 0.998 ± 0.032 | 0.9753 ± 0.009 | 0.98 ± 0.067 | 0.965 ± 0.039 | 1.02 ± 0.012 | 0.99 ± 0.021 | 2.31 | 3.46
5 | CME SYNOVIAL | 1.3 | 0.288 | 4.52 | – | 1.47 | 4.61 | 4.13 | 0.905 ± 0.26 | 0.854 ± 0.13 | 0.934 ± 0.15 | 0.973 ± 0.075 | 1.08 ± 0.058 | 1.14 ± 0.21 | 0.984 ± 0.095 | 0.823 ± 0.13 | 2.49 | –
6 | VP229 BREAST | 1.79 | 1.81 | 3.55 | 2.77 | 1.56 | 4.03 | – | 0.856 ± 0.095 | 0.825 ± 0.078 | 0.874 ± 0.039 | 0.9 ± 0.038 | 0.925 ± 0.1 | 0.867 ± 0.048 | 0.767 ± 0.14 | 0.665 ± 0.11 | 2.78 | 2.63
7 | HMT3552 BREAST | 1.94 | 1.48 | – | 3.17 | – | 3.77 | – | 0.916 ± 0.058 | 0.942 ± 0.017 | 0.988 ± 0.057 | 0.937 ± 0.064 | 1.05 ± 0.05 | 0.954 ± 0.023 | 0.828 ± 0.073 | 0.748 ± 0.035 | – | 3.14
8 | MDAMB453 BREAST | 1.04 | 2.11 | 3.54 | – | 1.23 | 3.64 | 3.52 | 1.03 ± 0.03 | 1.03 ± 0.016 | 1.077 ± 0.0087 | 1.06 ± 0.021 | 1.06 ± 0.051 | 1.04 ± 0.014 | 1.02 ± 0.042 | 0.98 ± 0.035 | 2.73 | –
